Reference: patent US5591755A, “Pyridinyl thiadiazolyl compounds for treating glaucoma” (Novo Nordisk A/S, priority 1990, dated 1997)
Structures can show the parent of a compound that is named as a salt. Where two headings read alike, the source gives them in different places.

Experiments:
[1] = test system: central and peripheral muscarinic effects; details: cited from earlier work
[2] = in vivo; cited from earlier work
[3] = target: muscarinic receptor in the CNS; details: read-out: affinity of sites labelled by 3H-Oxo, cited from earlier work
[4] = target: muscarinic acetylcholine receptors; test: inhibition of specific binding of 3H-Oxotremorine-M (3H-Oxo), in vitro; set-up: species or system rat (cortex from male Wistar rats); details: 3H-Oxo binding, rat cortex, 1.0 nM radioligand, 20 mM Hepes pH 7.4, 30 min at 25° C.
Excerpt: The pharmacological properties of the compounds of the invention can be illustrated by determining their capability to inhibit the specific binding of ^3 H-Oxotremorine-M (^3 H-Oxo). Birdsdall N. J. M., Hulme E. C., and Burgen A. S. V. (1980). "The Character of Muscarinic Receptors in Different Regions of the Rat Brain". Proc. Roy. Soc. London (Series B) 207,1. ^3 H-Oxo labels muscarinic receptor in the CNS (with a preference for agonist domaines of the receptors). Three different sites are labelled by ^3 H-Oxo. […] Using the present experimental conditions only the high and medium affinity sites are determined.
The inhibitory effects of compounds on ^3 H-Oxo binding reflects the affinity for muscarinic acetylcholine receptors.
All preparations are performed at 0°-4° C. unless otherwise indicated. Fresh cortex (0.1-1 g) from male Wistar rats (150-250 g) is homogenized for 5-10 s in 10 ml 20 mM Hepes pH: 7.4, with an Ultra-Turrax homogenizer. The homogenizer is rinsed with 10 ml of buffer and the combined suspension centrifuged for 15 min at 40,000×g. The pellet is washed three times with buffer. In each step the pellet is homogenized as before in 2×10 ml of buffer and centrifuged for 10 min at 40,000×g.
The final pellet is homogenized in 20 mM Hepes pH: 7.4 (100 ml per g of original tissue) and used for binding assay. Aliquots of 0.5 ml is added 25 μl of test solution and 25 μl of 3H-Oxotremorine (1.0 nM, final concentration) mixed and incubated for 30 min at 25° C. Non-specific binding is determined in triplicate using arecoline (1 μg/ml, final concentration) as the test substance. After incubation samples are added 5 ml of ice-cold buffer and poured directly onto Whatman GF/C glass fiber filters under suction and immediately washed 2 times with 5 ml of ice-cold buffer. The amount of radioactivity on the filters are determined by conventional liquid scintillation counting. Specific binding is total binding minus non specific binding.
Test substances are dissolved in 10 ml water (if necessary heated on a steambath for less than 5 minutes) at a concentration of 2.2 mg/ml.
The test value will be given as IC50 (the concentration (ng/ml) of the test substance which inhibits the specific binding of ^3 H-Oxo by 50%). [formula] where Co is specific binding in control assays and Cx is the specific binding in the test assay. (The calculations assume normal mass-action kinetics).

Compound	Inhibition in vitro OXO BINDING (IC50) [4] [ng/mL]	also measured
COC(=O)C1=CCCN(C)C1 [Arecoline, methyl 1-methyl-1,2,5,6-tetrahydropyridine-3-carboxylate]	–	separation between central and peripheral muscarinic effects [1]: small separation between central and peripheral muscarinic effects; biological half life [2]: very short biological half life
C[N+](C)(C)CC#CCN1CCCC1=O [Compound 3H-Oxo, ^3 H-Oxotremorine-M]	–	Kd ([3]; first of three sites (high affinity)): 1.8 nM; Kd ([3]; second of three sites (medium affinity)): 20 nM; Kd ([3]; third of three sites (not determined under the present conditions)): 3000 nM
CCCCCCOc1nsnc1C1=CCC(C)N(C)C1.O=C(O)C(=O)O (stereo not shown) [Compound 6, 3-(3-Hexyloxy-1,2,5-thiadiazol-4-yl)-1,2,5,6-tetrahydro-1,6-dimethylpyridine oxalate]	2.4	–
COc1nsnc1C1=C(C)CCN(C)C1.O=C(O)/C=C/C(=O)O [Compound 1, 1,2,5,6-Tetrahydro-3-(4-methoxy-1,2,5-thiadiazol-3-yl)-1,4-dimethylpyridine fumarate]	108	–
CCCCCOc1nsnc1C1=CCC(C)N(C)C1.O=C(O)C(=O)O (stereo not shown) [Compound 7, 3-(3-Pentyloxy-1,2,5-thiadiazol-4-yl)-1,2,5,6-tetrahydro-1,6-dimethylpyridine oxalate]	3.3	–
CC1CC=C(c2nsnc2SCCCCC#N)CN1C.O=C(O)C(=O)O (stereo not shown) [Compound 8, 3-(3-(4-Cyanobutylthio)-1,2,5-thiadiazol-4-yl)-1,2,5,6-tetrahydro-1,6-dimethylpyridine oxalate]	0.69	–
CCCCCCSc1nsnc1C1=CCC(C)N(C)C1.O=C(O)C(=O)O (stereo not shown) [Compound 3, 3-(3-Hexylthio-1,2,5-thiadiazol-4-yl)-1,2,5,6-tetrahydro-1,6-dimethylpyridine oxalate]	4.5	–
CCCCCCOc1nsnc1C1=C(C)CCN(C)C1 [Compound 2, 3-(4-Hexyloxy-1,2,5-thiadiazol-3-yl)-1,2,5,6-tetrahydrohydro-1,4-dimethylpyridine oxalate]	18	–
CC1CC=C(c2nsnc2SCc2ccc(C#N)cc2)CN1C.O=C(O)C(=O)O (stereo not shown) [Compound 5, 3-(3-(4-Cyanobenzylthio)-1,2,5-thiadiazol-4-yl)-1,2,5,6-tetrahydro-1,6-dimethylpyridine oxalate]	1.9	–
CCCCCSc1nsnc1C1=CCC(C)N(C)C1.O=C(O)C(=O)O (stereo not shown) [Compound 4, 3-(3-Pentylthio-1,2,5-thiadiazol-4-yl)-1,2,5,6-tetrahydro-1,6-dimethylpyridine oxalate]	2.0	–
